Type: physicochemical
Conditions: at higher concentrations than salicylic acid

SMILES: O=CO [formic acid]
- miscibility with ethyl lactate: miscible
